Laboratory results taken from US20210395239A1 (Hoffmann-La Roche Inc., priority 2018, published 2021).

The compounds below were run against T1, human TLR8 (Homo sapiens, UniProt Q9NR97) (assay: HEK293-Blue-hTLR-8 cells assay (SEAP reporter, R848 stimulation)). Conditions: HEK293-Blue-hTLR8 cells, R848, 20 hrs; read-out: HEK/hTLR8 IC50.
T1 construct: host or cells: HEK293 (HEK-Blue hTLR8)
T1 sequence (Q9NR97 27-1041): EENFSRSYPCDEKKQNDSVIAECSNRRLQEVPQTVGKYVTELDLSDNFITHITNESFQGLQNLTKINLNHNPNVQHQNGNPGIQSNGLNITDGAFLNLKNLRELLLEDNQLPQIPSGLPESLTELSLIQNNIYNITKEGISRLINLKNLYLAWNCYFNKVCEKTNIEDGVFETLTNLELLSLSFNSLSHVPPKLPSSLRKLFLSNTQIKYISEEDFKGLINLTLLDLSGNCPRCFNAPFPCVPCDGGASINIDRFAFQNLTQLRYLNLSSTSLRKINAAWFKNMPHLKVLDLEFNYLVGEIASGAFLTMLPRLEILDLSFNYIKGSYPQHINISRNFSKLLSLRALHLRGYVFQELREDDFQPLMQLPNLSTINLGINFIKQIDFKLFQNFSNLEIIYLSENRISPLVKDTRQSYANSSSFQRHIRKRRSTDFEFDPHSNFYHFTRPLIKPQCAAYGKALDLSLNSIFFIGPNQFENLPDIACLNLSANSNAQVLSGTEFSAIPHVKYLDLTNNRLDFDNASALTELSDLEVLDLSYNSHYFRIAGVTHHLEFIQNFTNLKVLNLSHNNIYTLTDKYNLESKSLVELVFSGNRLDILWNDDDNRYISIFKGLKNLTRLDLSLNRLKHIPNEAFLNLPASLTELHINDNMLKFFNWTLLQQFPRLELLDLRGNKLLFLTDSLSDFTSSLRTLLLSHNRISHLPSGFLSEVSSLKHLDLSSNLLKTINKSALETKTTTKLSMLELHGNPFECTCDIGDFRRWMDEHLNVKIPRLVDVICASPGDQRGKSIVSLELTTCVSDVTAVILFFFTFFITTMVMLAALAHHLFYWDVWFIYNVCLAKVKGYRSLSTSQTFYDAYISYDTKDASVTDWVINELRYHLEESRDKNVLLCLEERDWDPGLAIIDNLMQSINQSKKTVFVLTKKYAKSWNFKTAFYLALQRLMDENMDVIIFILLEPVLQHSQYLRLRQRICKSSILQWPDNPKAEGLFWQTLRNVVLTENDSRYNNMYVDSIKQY
Type: cell-based
Procedure, shortened: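 HEK293-Blue-hTLR8 cells (NF-κB/AP-1-driven SEAP) incubated 20 h at 37° C with serially diluted compound (1% DMSO) plus R848 stimulation. Supernatant SEAP measured with QUANTI-Blue, 2 h at 37° C, absorbance 620–655 nm.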

Row | SMILES | IC50 [nM]
1 | CO[C@@H]1CN(c2nc(C)cc(N3CCN(C[C@H]4CN(c5ccc(C#N)c6ncccc56)C[C@@H](C)O4)CC3)n2)C[C@@H]1N [Example 72, 5-[(2S,6R)-2-[[4-[2-[(3S,4R)-3-amino-4-methoxy-pyrrolidin-1-yl]-6-methyl-pyrimidin-4-yl]piperazin-1-yl]methyl]-6-methyl-morpholin-4-yl]quinoline-8-carbonitrile] | 3
2 | Cc1cc(N2CCN(C[C@H]3CN(c4ccc(C#N)c5ncccc45)C[C@@H](C)O3)CC2)nc(N2CCC(N)C(F)(F)C2)n1 (stereo partly drawn) [Example 86, 5-[(2S,6R)-2-[[4-[2-(4-amino-3,3-difluoro-1-piperidyl)-6-methyl-pyrimidin-4-yl]piperazin-1-yl]methyl]-6-methyl-morpholin-4-yl]quinoline-8-carbonitrile] | 6
3 | CO[C@H]1CN(c2nc(C)cc(N3CCN(C[C@H]4CN(c5ccc(C#N)c6ncccc56)C[C@@H](C)O4)CC3)n2)C[C@@H]1N (single isomer, unassigned) [Example 69A] | 2
4 | C[C@@H]1CN(c2ccc(C#N)c3ncccc23)C[C@H](CN2CCN(c3ccccc3C3CNCCO3)CC2)O1 (stereo partly drawn) [Example 89, 5-[(2R,6S)-2-methyl-6-[[4-(2-morpholin-2-ylphenyl)piperazin-1-yl]methyl]morpholin-4-yl]quinoline-8-carbonitrile] | 29
5 | CO[C@H]1CN(c2nc(C)cc(N3CCN(C[C@H]4CN(c5ccc(C#N)c6ncccc56)C[C@@H](C)O4)CC3)n2)CCC1N (stereo in doubt) [Example 90, 5-[(2S,6R)-2-[[4-[2-[(3S,4S)-4-amino-3-methoxy-1-piperidyl]-6-methyl-pyrimidin-4-yl]piperazin-1-yl]methyl]-6-methyl-morpholin-4-yl]quinoline-8-carbonitrile] | 2
6 | COC1CNCC1Nc1nc(C)cc(N2CCN(C[C@H]3CN(c4ccc(C#N)c5ncccc45)C[C@@H](C)O3)CC2)n1 (stereo in doubt) [Example 70, 5-[(2S,6R)-2-[[4-[2-[[(3R,4R)-4-methoxypyrrolidin-3-yl]amino]-6-methyl-pyrimidin-4-yl]piperazin-1-yl]methyl]-6-methyl-morpholin-4-yl]quinoline-8-carbonitrile] | 12
7 | Cc1cc(N2CCN(C[C@H]3CN(c4ccc(C#N)c5ncccc45)C[C@@H](C)O3)CC2)nc(N2CC[C@@H](N)[C@@H](F)C2)n1 [Example 78, 5-[(2S,6R)-2-[[4-[2-[(3S,4R)-4-amino-3-fluoro-1-piperidyl]-6-methyl-pyrimidin-4-yl]piperazin-1-yl]methyl]-6-methyl-morpholin-4-yl]quinoline-8-carbonitrile] | 1
8 | COC1CN(c2nc(C)cc(N3CCN(C[C@H]4CN(c5ccc(C#N)c6ncccc56)C[C@@H](C)O4)CC3)n2)CC1N (single isomer, unassigned) [Example 88] | 2
9 | Cc1cc(N2CCN(C[C@H]3CN(c4ccc(C#N)c5ncccc45)C[C@@H](C)O3)CC2)nc(N[C@@H]2CNC[C@H]2F)n1 [Example 76, 5-[(2S,6R)-2-[[4-[2-[[(3R,4R)-4-fluoropyrrolidin-3-yl]amino]-6-methyl-pyrimidin-4-yl]piperazin-1-yl]methyl]-6-methyl-morpholin-4-yl]quinoline-8-carbonitrile] | 3
10 | Cc1cc(N2CCN(C[C@H]3CN(c4ccc(C#N)c5ncccc45)C[C@@H](C)O3)CC2)nc(N[C@@H]2CNC[C@@H]2F)n1 [Example 71, 5-[(2S,6R)-2-[[4-[2-[[(3R,4S)-4-fluoropyrrolidin-3-yl]amino]-6-methyl-pyrimidin-4-yl]piperazin-1-yl]methyl]-6-methyl-morpholin-4-yl]quinoline-8-carbonitrile] | 15
11 | Cc1cc(N2CCN(C[C@H]3CN(c4ccc(C#N)c5ncccc45)C[C@@H](C)O3)CC2)nc(N2C[C@H](N)C[C@H](F)C2)n1 (relative stereo) [Example 74, 5-[(2R,6S)-2-methyl-6-[[4-[6-methyl-2-[cis-3-amino-5-fluoro-1-piperidyl]pyrimidin-4-yl]piperazin-1-yl]methyl]morpholin-4-yl]quinoline-8-carbonitrile] | 3
12 | CO[C@@H]1CN(c2nc(C)cc(N3CCN(C[C@H]4CN(c5ccc(C#N)c6ncccc56)C[C@@H](C)O4)CC3)n2)C[C@H]1N (single isomer, unassigned) [Example 69B] | 2
13 | Cc1cc(N2CCN(C[C@H]3CN(c4ccc(C#N)c5ncccc45)C[C@@H](C)O3)CC2)nc(N2CC[C@@H](N)C(F)C2)n1 (stereo in doubt) [Example 82, 5-[(2S,6R)-2-[[4-[2-[(3R,4R)-4-amino-3-fluoro-1-piperidyl]-6-methyl-pyrimidin-4-yl]piperazin-1-yl]methyl]-6-methyl-morpholin-4-yl]quinoline-8-carbonitrile] | 1
14 | Cc1cc(N2CCN(C[C@H]3CN(c4ccc(C#N)c5ncccc45)C[C@@H](C)O3)CC2)nc(N2CC[C@@H](F)[C@@H](N)C2)n1 [Example 83, 5-[(2R,6S)-2-methyl-6-[[4-[6-methyl-2-[(3S,4R)-3-amino-4-fluoro-1-piperidyl]-pyrimidin-4-yl]piperazin-1-yl]methyl]morpholin-4-yl]quinoline-8-carbonitrile] | 3
15 | Cc1cc(N2CCN(C[C@H]3CN(c4ccc(C#N)c5ncccc45)C[C@@H](C)O3)CC2)nc(N2CC(N)C2)n1 [Example 87, 5-[(2S,6R)-2-[[4-[2-(3-aminoazetidin-1-yl)-6-methyl-pyrimidin-4-yl]piperazin-1-yl]methyl]-6-methyl-morpholin-4-yl]quinoline-8-carbonitrile] | 2
16 | Cc1cc(N2CCN(C[C@H]3CN(c4ccc(C#N)c5ncccc45)C[C@@H](C)O3)CC2)nc(N2C[C@H](N)C[C@@H](F)C2)n1 (relative stereo) [Example 75, 5-[(2R,6S)-2-methyl-6-[[4-[6-methyl-2-[trans-3-amino-5-fluoro-1-piperidyl]pyrimidin-4-yl]piperazin-1-yl]methyl]morpholin-4-yl]quinoline-8-carbonitrile] | 3
17 | Cc1cc(N2CCN(C[C@H]3CN(c4ccc(C#N)c5ncccc45)C[C@@H](C)O3)CC2)nc(N2C[C@@H](N)[C@H](F)C2)n1 [Example 79, 5-[(2S,6R)-2-[[4-[2-[(3R,4R)-3-amino-4-fluoro-pyrrolidin-1-yl]-6-methyl-pyrimidin-4-yl]piperazin-1-yl]methyl]-6-methyl-morpholin-4-yl]quinoline-8-carbonitrile] | 2
18 | Cc1cc(N2CCN(C[C@H]3CN(c4ccc(C#N)c5ncccc45)C[C@@H](C)O3)CC2)nc(N2CC[C@@H](F)C(N)C2)n1 (single isomer, unassigned) [Example 84] | 7
19 | Cc1cc(N2CCN(C[C@H]3CN(c4ccc(C#N)c5ncccc45)C[C@@H](C)O3)CC2)nc(N2C[C@@H](N)C[C@@H](F)C2)n1 [Example 77, 5-[(2S,6R)-2-[[4-[2-[(3S,5R)-3-amino-5-fluoro-1-piperidyl]-6-methyl-pyrimidin-4-yl]piperazin-1-yl]methyl]-6-methyl-morpholin-4-yl]quinoline-8-carbonitrile] | 2
20 | Cc1cc(N2CCN(C[C@H]3CN(c4ccc(C#N)c5ncccc45)C[C@@H](C)O3)CC2)nc(NC2CNCC2F)n1 (stereo in doubt) [Example 73, 5-[(2S,6R)-2-[[4-[2-[[(3S,4R)-4-fluoropyrrolidin-3-yl]amino]-6-methyl-pyrimidin-4-yl]piperazin-1-yl]methyl]-6-methyl-morpholin-4-yl]quinoline-8-carbonitrile] | 17
21 | Cc1cc(N2CCN(C[C@H]3CN(c4ccc(C#N)c5ncccc45)C[C@@H](C)O3)CC2)nc(N2CC(N)CC(F)(F)C2)n1 (stereo partly drawn) [Example 80, 5-[(2S,6R)-2-[[4-[2-(5-amino-3,3-difluoro-1-piperidyl)-6-methyl-pyrimidin-4-yl]piperazin-1-yl]methyl]-6-methyl-morpholin-4-yl]quinoline-8-carbonitrile] | 6
22 | Cc1cc(N2CCN(C[C@H]3CN(c4ccc(C#N)c5ncccc45)C[C@@H](C)O3)CC2)nc(N2CCNC(C(C)(C)O)C2)n1 (stereo partly drawn) [Example 81, 5-[(2S,6R)-2-[[4-[2-[3-(1-hydroxy-1-methyl-ethyl)piperazin-1-yl]-6-methyl-pyrimidin-4-yl]piperazin-1-yl]methyl]-6-methyl-morpholin-4-yl]quinoline-8-carbonitrile] | 2
